{"source": "patent US6943183B2", "about": "(Pfizer Inc, priority 2000, dated 2005)", "target": "T1, SF9 affinity purified rat FPT (Rattus norvegicus, UniProt Q02293+Q04631)", "T1 construct": "made in house; host or cells: Sf9 insect cells", "test": "PFT (FPT) inhibitory activity assay, radiolabeled farnesyl pyrophosphate and biotinyl peptide, streptavidin beads", "format": "biochemical", "conditions": "HEPES buffer pH 7.4, 30° C., 30 minutes; read-out: FTase IC50", "experimental": "The PFT or FPT inhibitory activity of compounds of the present invention were assayed in HEPES buffer (pH 7.4) containing 5 mM potassium phosphate and 20 μM ZnCl2. The solution also contained 5 mM DTT (dithiothreitol), 5 mM MgCl2, and 0.1% PEG 8000. Assays were performed in 96 well plates (Wallec) and employed solutions composed of varying concentrations of a compound of the present invention in 10% DMSO (dimethylsulfoxide). […] After incubation at 30° C. for 30 minutes, the reaction was terminated by diluting the reaction 2.5-fold with a stop buffer containing 1.5 M magnesium acetate, 0.2 M H3PO4, 0.5% BSA (bovine serum albumin), and strepavidin beads (Amersham) at a concentration of 1.3 mg/mL. […] The assay was also carried out without 5 mM potassium phosphate.", "note": "Counter-ions that a name gives are not always drawn."}
{"compound": "6-((1S)-2-Indazolyl-1-phenylethoxy)-5-amino-2,3,4-trihydronaphthalen-1-one [Compound 37]", "values": [{"measurement": "IC50", "result": 13, "unit": "nM"}]}
{"compound": "CCC(C)OCc1c(O[C@H](Cn2ccnc2)c2ccccc2)ccc2c1CCCC2=O", "note": "(mixture of isomers) [Compound 19d, (±)5-sec-Butoxymethyl-6-((S)-2-imidazol-1-yl-1-phenyl-ethoxy)-3,4-dihydro-2H-naphthalen-1-one]", "values": [{"measurement": "IC50", "result": 1.9, "unit": "nM"}]}
{"compound": "O=C1CCC(c2ccccc2)c2cc(OC(Cn3ccnc3)c3ccccc3)ccc21", "note": "(racemic) [Compound 48, (±)-6-(2-imidazolyl-O-phenylethoxy)-4-phenyl-2,3,4-trihydronaphthalen-1-one]", "values": [{"measurement": "IC50", "result": 35, "unit": "nM"}]}
{"compound": "C=CCc1c(OC(Cn2ccnc2)c2ccccc2)ccc2c1CCCC2=O", "note": "(racemic) [Compound 49, (±)-6-(2-imidazolyl-1-phenylethoxy)-5-prop-2-ethyl-2,3,4-trihydronaphthalen-1-one]", "values": [{"measurement": "IC50", "result": 17, "unit": "nM"}]}
{"compound": "C=C(C)Cc1c(OC(Cn2ccnc2)c2ccccc2)ccc2c1CCCC2=O", "note": "(racemic) [Compound 52, (±)-6-(2-Imidazolyl-1-phenylethoxy)-5-(2-methylprop-2-enyl)-2,3,4-trihydronaphthalen-1-one]", "values": [{"measurement": "IC50", "result": 8, "unit": "nM"}]}
{"compound": "C=CCc1c(OC(Cn2ccnc2)c2ccccc2Cl)ccc2c1CCCC2=O", "note": "(racemic) [Compound 59, (±)-6-[1-(2-Chlorophenyl)-2-imidazolylethoxy]-5-prop-2-enyl-2,3,4-trihydronaphthalen-1-one]", "values": [{"measurement": "IC50", "result": 12, "unit": "nM"}]}
{"compound": "C=CCc1c(OC(Cn2ccnc2)c2c(Cl)cccc2Cl)ccc2c1CCCC2=O", "note": "(racemic) [Compound 60, (±)-6-[0-(2,6-Dichlorophenyl)-2-imidazolylethoxy]-5-prop-2-enyl-2,3,4-trihydronaphthalen-1-one, Trifluoroacetic Acid]", "values": [{"measurement": "IC50", "result": 29, "unit": "nM"}]}
{"compound": "C=CCc1c(OC(Cn2ccnc2)c2cccs2)ccc2c1CCCC2=O", "note": "(racemic) [Compound 61, (±)-6-(2-imidazolyl-1-(2-thienyl)ethoxy)-5-prop-2-ethyl-2,3,4-trihydronaphthalen-1-one]", "values": [{"measurement": "IC50", "result": 7, "unit": "nM"}]}
{"compound": "Cc1nccn1CC(Oc1ccc2c(c1CCc1ccccc1)CCCC2=O)c1ccccc1", "note": "(racemic) [Compound 63o, (±)-6-[2-(2-Methyl-imidazol-yl)-1-phenyl-ethoxy]-5-phenethyl-3,4-dihydro-2H-naphthalen-1-one]", "values": [{"measurement": "IC50", "result": 4, "unit": "nM"}]}
{"compound": "O=C1CCCc2c1ccc(O[C@H](Cn1ccnc1)c1ccccc1)c2C[S+]([O-])c1ccccn1", "note": "(mixture of isomers) [Compound 142, 6-((S)-2-Imidazol-1-yl-1-phenyl-ethoxy)-5-(pyridine-2-sulfinylmethyl)-3,4-dihydro-2H-napthalen-1-one]", "values": [{"measurement": "IC50", "result": 0.55, "unit": "nM"}]}
{"compound": "CC(C)[S+]([O-])Cc1c(O[C@H](Cn2ccnc2)c2ccccc2)ccc2c1CCCC2=O", "note": "(mixture of isomers) [Compound 143, 6-((S)-2-Imidazol-1-yl-1-phenyl-ethoxy)-5-(propane-2-sulfinylmethyl)-3,4-dihydro-2H-napthalen-1-one]", "values": [{"measurement": "IC50", "result": 1.4, "unit": "nM"}]}
{"compound": "O=C1CCCc2c1ccc(O[C@H](Cn1ccnc1)c1cccnc1)c2CCc1ccccc1", "note": "(single isomer, unassigned) [Compound 63a]", "values": [{"measurement": "IC50", "result": 0.4, "unit": "nM"}]}
{"compound": "O=C1CCCc2c1ccc(O[C@H](Cn1ccnc1)c1ccccc1)c2CSc1ccccc1", "note": "[Compound 1, 6-((1S)-2-Imidazolyl-1-phenylethoxy)-5-(phenylthiomethyl)-2,3,4-trihydronaphthalen-1-one]", "values": [{"measurement": "IC50", "result": 0.3, "unit": "nM"}]}
{"compound": "O=C1CCCc2c1ccc(O[C@H](Cn1ccnc1)c1ccccc1)c2C[S+]([O-])c1ccccc1", "note": "(stereo partly shown) [Compound 2]", "values": [{"measurement": "IC50", "result": 3, "unit": "nM"}]}
{"compound": "O=C1CCCc2c1ccc(O[C@H](Cn1ccnc1)c1ccccc1)c2CS(=O)(=O)c1ccccc1", "note": "[Compound 3]", "values": [{"measurement": "IC50", "result": 0.3, "unit": "nM"}]}
{"compound": "COC(=O)c1ccccc1SCc1c(O[C@H](Cn2ccnc2)c2ccccc2)ccc2c1CCCC2=O", "note": "[Compound 4, Methyl 2-{[2-((1S)-2-imidazolyl-1-phenylethoxy)-5-oxo-6,7,8-trihydronaphthyl]methylthio}benzoate]", "values": [{"measurement": "IC50", "result": 0.3, "unit": "nM"}]}
{"compound": "O=C(O)c1ccccc1SCc1c(O[C@H](Cn2ccnc2)c2ccccc2)ccc2c1CCCC2=O", "note": "[Compound 5, 2-{[2-((1S)-2-Imidazolyl-1-phenylethoxy)-5-oxo-6,7,8-trihydronaphenyl]methylthio}benzoic acid]", "values": [{"measurement": "IC50", "result": 2, "unit": "nM"}]}
{"compound": "CC(C)SCc1c(O[C@H](Cn2ccnc2)c2ccccc2)ccc2c1CCCC2=O", "note": "[Compound 6, 6-((S)-2-Imidazol-1-yl-1-phenyl-ethoxy)-5-isopropylsulfanylmethyl-2,3,4-trihydronaphthalen-1-one]", "values": [{"measurement": "IC50", "result": 0.4, "unit": "nM"}]}
{"compound": "CC(C)S(=O)(=O)Cc1c(O[C@H](Cn2ccnc2)c2ccccc2)ccc2c1CCCC2=O", "note": "[Compound 7]", "values": [{"measurement": "IC50", "result": 6, "unit": "nM"}]}
{"compound": "O=C1CCCc2c1ccc(O[C@H](Cn1ccnc1)c1ccccc1)c2CSc1ccncc1", "note": "[Compound 8]", "values": [{"measurement": "IC50", "result": 3, "unit": "nM"}]}
{"compound": "O=C1CCCc2c1ccc(O[C@H](Cn1ccnc1)c1ccccc1)c2CSc1ccccn1", "note": "[Compound 9, 6-((1S)-2-Imidazolyl-1-phenylethoxy)-5-(2-pyridylthiomethyl)-2,3,4-trihydronaphthalen-1-one]", "values": [{"measurement": "IC50", "result": 4, "unit": "nM"}]}
{"compound": "O=C1CCCc2c1ccc(O[C@H](Cn1ccnc1)c1ccccc1)c2CS(=O)(=O)c1ccccn1", "note": "[Compound 10, 6-(1S)-2-Imidazolyl-1-phenylethoxy)-5-[(2-pyridylsulfonyl)methyl]-2,3,4-trihydronaphthalen-1-one hydrochloride]", "values": [{"measurement": "IC50", "result": 0.3, "unit": "nM"}]}
{"compound": "O=C1CCCc2c1ccc(O[C@H](Cn1ccnc1)c1ccccc1)c2CSc1cccc2ccccc12", "note": "[Compound 10a, 6-((S)-2-Imidazol-1-yl-1-phenyl-ethoxy)-5-(naphthalen-1-ylsulfanylmethyl)-3,4-dihydro-2H-naphthalen-1-one]", "values": [{"measurement": "IC50", "result": 30.5, "unit": "nM"}]}
{"compound": "COC(=O)CSCc1c(O[C@H](Cn2ccnc2)c2ccccc2)ccc2c1CCCC2=O", "note": "[Compound 10b, [2-(2-Imidazol-1-yl-1(S)-phenyl-ethoxy)-5-oxo-5,6,7,8-tetrahydro-naphthalen-1-ylmethylsulfanyl]-acetic acid methyl ester]", "values": [{"measurement": "IC50", "result": 2.5, "unit": "nM"}]}
{"compound": "O=C1CCCc2c1ccc(O[C@H](Cn1ccnc1)c1ccccc1)c2CSCc1ccc(Cl)c(Cl)c1", "note": "[Compound 10c, 5-(3,4-Dichloro-benzylsulfanylmethyl)-6-((1S)-2-imidazol-1-yl-1-phenyl-ethoxy)-3,4-dihydro-2H-naphthalen-1-one]", "values": [{"measurement": "IC50", "result": 5.3, "unit": "nM"}]}
{"compound": "O=C1CCCc2c1ccc(O[C@H](Cn1ccnc1CO)c1ccccc1)c2CS(=O)(=O)c1ccccc1", "note": "[Compound 10d, (S)-6{2-[2-(Hydroxymethyl)-1H-imidazol-1-yl]-1-phenylethoxy}-5-[(phenylsulfonyl)methyl]-3,4-dihydro-1(2H)-naphthalenone]", "values": [{"measurement": "IC50", "result": 5.5, "unit": "nM"}]}
{"compound": "O=C1CCCc2c1ccc(O[C@H](Cn1ccnc1)c1ccccc1)c2CNc1ccccc1", "note": "[Compound 11]", "values": [{"measurement": "IC50", "result": 0.2, "unit": "nM"}]}
{"compound": "CN(Cc1c(O[C@H](Cn2ccnc2)c2ccccc2)ccc2c1CCCC2=O)c1ccccc1", "note": "[Compound 12]", "values": [{"measurement": "IC50", "result": 4, "unit": "nM"}]}
{"compound": "COC(=O)c1ccc(N(C)Cc2c(O[C@H](Cn3ccnc3)c3ccccc3)ccc3c2CCCC3=O)cc1", "note": "[Compound 13, Methyl 4-({[2-((1S)-2-imidazolyl-1-phenylethoxy)-5-oxo(6,7,8-trihydronaphthyl)]methyl}methylamino)benzoate]", "values": [{"measurement": "IC50", "result": 2, "unit": "nM"}]}
{"compound": "CC(C)OCc1c(O[C@H](Cn2ccnc2)c2ccccc2)ccc2c1CCCC2=O", "note": "[Compound 15, hydrochloride]", "values": [{"measurement": "IC50", "result": 0.2, "unit": "nM"}]}
{"compound": "O=C1CCCc2c1ccc(O[C@H](Cn1ccnc1)c1ccccc1)c2COCc1ccccc1", "note": "[Compound 16, 6-((1S)-2-Imidazolyl-1-phenylethoxy)-5-[(phenylmethoxy)methyl]-2,3,4-trihydronaphthalen-1-one]", "values": [{"measurement": "IC50", "result": 0.8, "unit": "nM"}]}
{"compound": "O=C1CCCc2c1ccc(O[C@H](Cn1ccnc1)c1ccccc1)c2COC1CCCC1", "note": "[Compound 17]", "values": [{"measurement": "IC50", "result": 0.3, "unit": "nM"}]}
{"compound": "C=CCOCc1c(O[C@H](Cn2ccnc2)c2ccccc2)ccc2c1CCCC2=O", "note": "[Compound 18, 6-((1S)-2-imidazolyl-1-phenylethoxy)-5-(prop-2-enyloxymethyl)-2,3,4-trihydronaphthalen-1-one]", "values": [{"measurement": "IC50", "result": 8, "unit": "nM"}]}
{"compound": "CC(C)COCc1c(O[C@H](Cn2ccnc2)c2ccccc2)ccc2c1CCCC2=O", "note": "[Compound 19a, 6-((S)-2-Imidazol-1-yl-1-phenyl-ethoxy)-5-isobutoxymethyl-1-3,4-dihydro-2H-naphthalen-1-one]", "values": [{"measurement": "IC50", "result": 1.9, "unit": "nM"}]}
{"compound": "CCCOCc1c(O[C@H](Cn2ccnc2)c2ccccc2)ccc2c1CCCC2=O", "note": "[Compound 19b, 6-((S)-2-Imidazol-1-yl-1-phenyl-ethoxy)-5-propoxymethyl-3,4-dihydro-2H-naphthalen-1-one]", "values": [{"measurement": "IC50", "result": 3.6, "unit": "nM"}]}
{"compound": "CCC(CC)OCc1c(O[C@H](Cn2ccnc2)c2ccccc2)ccc2c1CCCC2=O", "note": "[Compound 19c, 5-(1-Ethyl-propoxymethyl)-6-((S)-2-imidazol-1-yl-1-phenyl-ethoxy)-3,4-dihydro-2H-naphthalen-1-one]", "values": [{"measurement": "IC50", "result": 1.4, "unit": "nM"}]}
{"compound": "O=C1CCCc2c1ccc(O[C@H](Cn1ccnc1)c1ccccc1)c2CCc1ccccc1", "note": "[Compound 20]", "values": [{"measurement": "IC50", "result": 0.4, "unit": "nM"}]}
{"compound": "O=C1CCCc2c1ccc(O[C@H](Cn1ccnc1)c1ccccc1)c2-c1ccc2c(c1)OCO2", "note": "[Compound 21, 5-(2H-Benzo[d]-1,3-dioxolan-5-yl)-6-((1S)-2-imidazolyl-1-phenylethoxy)-2,3,4-trihydronaphthalen-1-one]", "values": [{"measurement": "IC50", "result": 8, "unit": "nM"}]}
{"compound": "O=C1CCCc2c1ccc(O[C@H](Cn1ccnc1)c1ccccc1)c2-c1cccc(Cl)c1", "note": "[Compound 22, 6-((1S)-2-Imidazolyl-1-phenylethoxy)-5-(3-chlorophenyl)-2,3,4-trihydronaphthalen-1-one]", "values": [{"measurement": "IC50", "result": 26, "unit": "nM"}]}
{"compound": "O=C1CCCc2c1ccc(O[C@H](Cn1ccnc1)c1ccccc1)c2-c1ccc2ccccc2c1", "note": "[Compound 23, 6-((1S)-2-Imidazolyl-1-phenylethoxy)-5-(2-naphthyl)-2,3,4-trihydronaphthalen-1-one]", "values": [{"measurement": "IC50", "result": 11, "unit": "nM"}]}
